Experimental data: patent publication US8377943B2, “2,4-diaminopyrimidine derivates as PTK2-inhibitors for the treatment of abnormal cell growth” (Boehringer Ingelheim International GmbH, priority 2008, dated 2013)

What was measured:
PTK2 = target: T1, PTK2 (Homo sapiens, UniProt Q05397); assay: PTK2 Enzyme Test (DELFIA assay, poly-Glu-Tyr substrate); format: biochemical; settings: active PTK2 enzyme, 50 μM ATP in ATP Mix, 1 h pre-incubation
T1 construct: purchased Invitrogen PV3832
Protocol: This test uses active PTK2 enzyme (Invitrogen Code PV3832) and poly-Glu-Tyr (4:1, Sigma P-0275) as the kinase substrate. The kinase activity is detected by means of the phosphorylation of the substrate in a DELFIA™ assay. The phosphorylated substrate is detected with the Europium-labelled phosphotyrosine antibody PY20 (Perkin Elmer, No.: AD0038).
In order to determine concentration-activity curves with PTK2-inhibitors the compounds are serially diluted in 10% DMSO/H2O and 10 μL of each dilution are dispensed per well in a 96-well microtitre plate (clear U-shaped base plate, Greiner No. 650101) (the inhibitors are tested in duplicates) and mixed with 10 μL/well of PTK2 kinase (0.01 μg/well). PTK2 kinase is diluted accordingly beforehand with kinase dilution buffer (20 mM TRIS/HCl pH 7.5, 0.1 mM EDTA, 0.1 mM EGTA, 0.286 mM sodium orthovanadate, 10% glycerol with the addition of freshly prepared BSA (fraction V 1 mg/mL) and DTT (1 mM)). The test compound and the PTK2 kinase are pre-incubated for 1 h at RT and shaken at 500 rpm. Then 20 μL ATP Mix (30 mM TRIS/HCl pH 7.5, 0.02% Brij, 0.2 mM sodium orthovanadate, 10 mM magnesium acetate, 0.1 mM EGTA, 1× Phosphatase Inhibitor Cocktail 1 (Sigma, No.: P2850), 50 μM ATP (Sigma, No.: A3377; 15 mM stock solution)) are added. The reaction is started by the addition of 10 μL/well of poly (Glu,Tyr) substrate (25 μg/well poly (Glu,Tyr), 0.05 μg/well biotinylated poly (Glu,Tyr) dissolved in 250 mM TRIS/HCl pH 7.5, 9 mM DTT)—the final concentration of DMSO is 2%. After 1 h kinase reaction (the plates are shaken at 500 rpm), the reaction is stopped by the addition of 12 μL/well of 100 mM EDTA, pH 8. And shaken for a further 5 min at RT (500 U/min).
55 μL of the reaction mixture are transferred into a streptavidin plate (Strepta Well High Bind (transparent, 96-well) made by Roche, No.: 11989685001) and incubated for 1 h at RT (shaking at 500 rpm). Then the microtitre plate is washed three times with 200 μL/well D-PBS (Invitrogen, No.:14190). 100 μL of 1:2000 diluted DELFIA Eu-N1 Anti-Phosphotyrosine PY20 antibody (Perkin Elmer, No.: AD0038, 1:2000 diluted in DELFIA test buffer (Perkin Elmer, No.: 1244-111)) is then added and it is incubated for 1 h at RT (shaking at 500 rpm). Then the plate is washed three times with 200 μL/well DELFIA washing buffer (Perkin Elmer, No.: 1244-114), 200 μL/well strengthening solution (Perkin Elmer, No.: 1244-105) is added and the whole is incubated for 10 min at RT (shaking at 300 rpm).
The time-delayed europium fluorescence is then measured in a microtitre plate reader (Victor, Perkin Elmer). The positive control consists of wells that contain solvent (2% DMSO in test buffer) and display uninhibited kinase activity. Wells that contain test buffer instead of enzyme act as a control for the background kinase activity.
The IC50 values are determined from concentration-activity analyses by iterative calculation using a sigmoidal curve analysis algorithm (FIFTY, based on GraphPAD Prism Version 3.03) with a variable Hill coefficient.

[1] = target: T2, PTK2-phosphorylation at tyrosine 397 (pY397) (Homo sapiens, UniProt Q05397); assay: Phospho-PTK2 (pY397) Assay in PC-3 cells; format: cell-based; settings: PC-3 prostate carcinoma cells, 2 h incubation; read-out: PC3pPTK2 Y397 EC50
T2 construct: endogenous in cells; host or cells: PC-3 (ATCC CRL-1435)
T2 sequence (Q05397 whole entry): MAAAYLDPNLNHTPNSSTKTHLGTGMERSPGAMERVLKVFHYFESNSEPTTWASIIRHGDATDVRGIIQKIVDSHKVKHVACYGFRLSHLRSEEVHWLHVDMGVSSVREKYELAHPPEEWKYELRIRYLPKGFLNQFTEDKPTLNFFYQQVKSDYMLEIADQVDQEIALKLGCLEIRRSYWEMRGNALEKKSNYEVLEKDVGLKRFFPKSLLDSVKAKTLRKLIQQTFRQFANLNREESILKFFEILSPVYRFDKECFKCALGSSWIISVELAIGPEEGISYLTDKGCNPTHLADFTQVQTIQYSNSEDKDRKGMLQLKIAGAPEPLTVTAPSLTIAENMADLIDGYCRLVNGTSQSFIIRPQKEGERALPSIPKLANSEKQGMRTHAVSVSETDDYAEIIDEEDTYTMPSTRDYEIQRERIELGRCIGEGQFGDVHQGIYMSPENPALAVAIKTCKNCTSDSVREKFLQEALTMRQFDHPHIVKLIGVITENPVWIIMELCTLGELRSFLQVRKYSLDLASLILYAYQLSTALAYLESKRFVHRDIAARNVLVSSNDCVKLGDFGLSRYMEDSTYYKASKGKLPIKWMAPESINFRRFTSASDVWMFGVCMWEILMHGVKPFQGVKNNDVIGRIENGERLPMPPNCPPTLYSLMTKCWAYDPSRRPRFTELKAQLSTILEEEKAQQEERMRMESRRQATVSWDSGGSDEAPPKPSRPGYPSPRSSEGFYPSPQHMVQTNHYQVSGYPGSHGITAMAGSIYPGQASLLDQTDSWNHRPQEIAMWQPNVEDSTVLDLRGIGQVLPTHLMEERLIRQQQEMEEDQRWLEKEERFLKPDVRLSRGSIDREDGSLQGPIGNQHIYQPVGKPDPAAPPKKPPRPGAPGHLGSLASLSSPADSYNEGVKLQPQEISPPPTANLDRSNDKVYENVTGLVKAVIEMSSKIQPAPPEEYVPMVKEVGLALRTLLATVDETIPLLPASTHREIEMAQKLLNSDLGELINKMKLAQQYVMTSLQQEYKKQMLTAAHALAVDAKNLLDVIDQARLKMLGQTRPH
Protocol: This cellular test is used to determine the influence of PTK2-inhibitors on the state of the PTK2-phosphorylation at tyrosine 397 (pY397).
PC-3 cells (prostate carcinoma, ATCC CRL-1435) are grown in cell culture flasks (175 cm^2) with F12 Kaighn's Medium (Gibco, No.: 21127) with the addition of 10% foetal calf serum (Invitrogen, No.: 16000-044). The cultures are incubated in the incubator at 37° C. and 5% CO2 and run twice a week.
For the test, 2×10^4 cells pro well/[…] are plated out in 96-well microtitre plates (Costar, No.: 3598) and incubated overnight in the incubator at 37° C. and 5% CO2. The test compounds (10 μL from serial dilution) are added the next day. The concentration of the test compounds usually covers a range of 50 μM and 0.8 nM. The test compounds (stock solution: 10 mM in 100% DMSO) are diluted in medium/medium 10% DMSO such that the final concentration is 1% DMSO. The cells are then incubated in the incubator at 37° C. and 5% CO2 for 2 h. Then the culture supernatant is removed and the cells are fixed with 150 μL 4% formaldehyde in D-PBS for 20 min at RT. The cell lawn is washed five times with 200 μL 0.1% Triton X-100 in D-PBS for 5 min in each case and then incubated for 90 min with blocking buffer (5% skimmed milk powder (Maresi Fixmilch) in TBST (25 mM Tris/HCl, pH 8.0, 150 mM NaCl, 0.05% Tween 20). The blocking buffer is replaced by 50 μL of the first antibody anti-phospho PTK2 [pY397] rabbit monoclonal (Invitrogen/Biosource, No.: 44-625G), which is diluted 1:200 in blocking buffer. For control purposes, alternatively a PTK2 [total] antibody (clone 4.47 mouse monoclonal, Upstate, No.: 05-537), diluted 1:400 in blocking buffer is used. This incubation is carried out at 4° C. overnight. Then the cell lawn is washed five times with 100 μL of 0.1% Tween in D-PBS for 5 min in each case and 50 μL/well of second antibody are added. In order to detect bound phospho-PTK2 [pY397] antibody a goat-anti-rabbit antibody is used which is coupled with horseradish peroxidase (Dako, No.: P0448; 1:500 dilution in blocking buffer). In order to detect bound PTK2 [total]-antibodies a rabbit-anti-mouse antibody is used, which is also coupled with horseradish peroxidase (Dako, No.: PO161; 1:1000 dilution in blocking buffer). This incubation is carried out for 1 h at RT with gentle shaking. The cell lawn is then again washed five times with 100 μL of 0.1% Tween in D-PBS for 5 min in each case. […] The EC50 values are determined from concentration-activity analyses by iterative calculation with the aid of a sigmoidal curve analysis algorithm (FIFTY, based on GraphPAD Prism Version 3.03) with a variable Hill coefficient.

T1 sequence (Q05397 whole entry): as above

Row | Structure (SMILES) | IC50 (PTK2) | EC50 [1]
1 | COc1cc(CNC2CCCC2)ccc1Nc1ncc(C(F)(F)F)c(NCc2ccc(C)cc2N(C)S(C)(=O)=O)n1 [Example 63] | 3 nM | 0.63 nM
2 | COc1cc(C(=O)NC[C@@H](C)N2CCCC2)ccc1Nc1ncc(C(F)(F)F)c(NCc2ccc(C)cc2N(C)S(C)(=O)=O)n1 [Example 6] | 3 nM | 0.13 nM
3 | COc1cc(C(=O)N[C@H]2CCCN(C3CCCC3)C2)ccc1Nc1ncc(C(F)(F)F)c(NCc2ccc(C)cc2N(C)S(C)(=O)=O)n1 [Example 47] | 6 nM | 0.5 nM
4 | CCN1CCC[C@H]1CNC(=O)c1ccc(Nc2ncc(C(F)(F)F)c(NCc3ccc(C)cc3N(C)S(C)(=O)=O)n2)c(OC)c1 [Example 45] | 3 nM | 0.44 nM
5 | COc1cc(C(=O)N[C@@H]2CCN(C)C[C@@H]2F)c(F)cc1Nc1ncc(C(F)(F)F)c(NCc2ccc(C)cc2N(C)S(C)(=O)=O)n1 [Example 24] | 3 nM | 0.23 nM
6 | COc1cc(C(=O)NC2CCC(N3CCOCC3)CC2)c(C)cc1Nc1ncc(C(F)(F)F)c(NCc2ccc(C)cc2N(C)S(C)(=O)=O)n1 (stereo not drawn) [Example 84] | 3 nM | 1 nM
7 | COc1cc(CNCc2ccccc2)ccc1Nc1ncc(C(F)(F)F)c(NCc2ccc(C)cc2N(C)S(C)(=O)=O)n1 [Example 67] | 7 nM | 0.7 nM
8 | COC(=O)Nc1cc(OC)c(Nc2ncc(C(F)(F)F)c(NCc3ccc(OC)cc3N(C)S(C)(=O)=O)n2)cc1C [Example 125] | 5 nM | 3 nM
9 | COc1cc(C(=O)N[C@@H]2CCN(C)C[C@H]2F)c(F)cc1Nc1ncc(C(F)(F)F)c(NCc2ccc(C)cc2N(C)S(C)(=O)=O)n1 [Example 19] | 3 nM | 0.2 nM
10 | COc1cc(C(=O)NC2CC(C)(C)N(C)C(C)(C)C2)ccc1Nc1ncc(C(F)(F)F)c(NCc2ccc(C)cc2N(C)S(C)(=O)=O)n1 [Example 11] | 4 nM | 0.16 nM
11 | COc1cc(C(=O)N[C@H]2CCN(C)C[C@H]2F)ccc1Nc1ncc(C(F)(F)F)c(NCc2ccc(C)cc2N(C)S(C)(=O)=O)n1 [Example 119] | 3 nM | 3 nM
12 | COc1cc(C(=O)N[C@@H]2CCCN(C3CCC3)C2)ccc1Nc1ncc(C(F)(F)F)c(NCc2ccc(C)cc2N(C)S(C)(=O)=O)n1 [Example 86] | 3 nM | 1 nM
13 | COc1cc(C(=O)NC2CCN(C3CCCCC3)CC2)ccc1Nc1ncc(C(F)(F)F)c(NCc2ccc(C)cc2N(C)S(C)(=O)=O)n1 [Example 16] | 4 nM | 0.19 nM
14 | COc1cc(CNCCN(C)C)ccc1Nc1ncc(C(F)(F)F)c(NCc2ccc(C)cc2N(C)S(C)(=O)=O)n1 [Example 88] | 4 nM | 1 nM
15 | COc1cc(C(=O)NC2CCN3CCCC3C2)ccc1Nc1ncc(C(F)(F)F)c(NCc2ccc(C)cc2N(C)S(C)(=O)=O)n1 (stereo not drawn) [Example 49] | 4 nM | 0.51 nM
16 | COc1cc(C(=O)N[C@H]2CCCN(C3CCOCC3)C2)ccc1Nc1ncc(C(F)(F)F)c(NCc2ccc(C)cc2N(C)S(C)(=O)=O)n1 [Example 53] | 5 nM | 0.54 nM
17 | COc1cc(C(=O)N[C@H]2CCN(C)C2)c(Cl)cc1Nc1ncc(C(F)(F)F)c(NCc2ccc(C)cc2N(C)S(C)(=O)=O)n1 [Example 120] | 3 nM | 3 nM
18 | COc1ccc(CNc2nc(Nc3cc(F)c(C(=O)N[C@H]4CCN(C)C4)cc3OC)ncc2C(F)(F)F)c(N(C)S(C)(=O)=O)c1 [Example 29] | 2 nM | 0.29 nM
19 | COc1ccc(CNc2nc(Nc3ccc(C(=O)N[C@H]4CC[C@H](N5CCOCC5)CC4)cc3OC)ncc2C(F)(F)F)c(N(C)S(C)(=O)=O)c1 [Example 57] | 2 nM | 0.57 nM
20 | COc1cc(C(=O)NC(C)(C)C)c(F)cc1Nc1ncc(C(F)(F)F)c(NCc2ccc(C)cc2N(C)S(C)(=O)=O)n1 [Example 113] | 5 nM | 3 nM

Further lines, results first:

Row | IC50 (PTK2) | EC50 [1] | Structure (SMILES)
21 | 1 nM | 0.54 nM | COc1cc(C(=O)NC2CCN(C)CC2)ccc1Nc1ncc(C(F)(F)F)c(NCc2ccc(F)cc2N(C)S(C)(=O)=O)n1 [Example 52]
22 | 2 nM | 1 nM | COc1cc(CNC(C)C)ccc1Nc1ncc(C(F)(F)F)c(NCc2ccc(C)cc2N(C)S(C)(=O)=O)n1 [Example 89]
23 | 2 nM | 1 nM | COc1cc(N2CCN(C)CC2)ccc1Nc1ncc(C(F)(F)F)c(NCc2ccc(C)cc2N(C)S(C)(=O)=O)n1 [Example 79]
24 | 1 nM | 0.53 nM | COc1cc(C(=O)NC2CCC(N(C)C)CC2)ccc1Nc1ncc(C(F)(F)F)c(NCc2ccc(C)cc2N(C)S(C)(=O)=O)n1 (stereo not drawn) [Example 51]
25 | 2 nM | 1 nM | COc1cc(C(=O)NC2CCNCC2)ccc1Nc1ncc(C(F)(F)F)c(NCc2ccc(C)cc2N(C)S(C)(=O)=O)n1 [Example 83]
26 | 1 nM | 1 nM | COc1ccc(CNc2nc(Nc3ccc(NC(C)=O)c(OC)c3)ncc2C(F)(F)F)c(N(C)S(C)(=O)=O)c1 [Example 87]
27 | 2 nM | 2 nM | CC(=O)Nc1ccc(Nc2ncc(C(F)(F)F)c(NCc3ccc(C)cc3N(C)S(C)(=O)=O)n2)cc1Cl [Example 104]
28 | 2 nM | 0.88 nM | COc1cc(C(=O)N[C@H]2CC[C@H](N3CCOCC3)CC2)ccc1Nc1ncc(C(F)(F)F)c(NCc2ccc(C)cc2N(C)S(C)(=O)=O)n1 [Example 76]
29 | 2 nM | 0.4 nM | COc1cc(C(=O)NC2CCN(C)CC2)c(F)cc1Nc1ncc(C(F)(F)F)c(NCc2ccc(C)cc2N(C)S(C)(=O)=O)n1 [Example 43]
30 | 1 nM | 0.37 nM | COc1ccc(CNc2nc(Nc3cc(F)c(C(=O)NC4CCN(C)CC4)cc3OC)ncc2C(F)(F)F)c(N(C)S(C)(=O)=O)c1 [Example 40]
